Reference: patent US20170137753A1, “DELIVERY SYSTEMS COMPRISING MALODOR REDUCTION COMPOSITIONS” (The Procter & Gamble Company, priority 2014, published 2017)

Assay: Blocker Index (BI), expert graders, malodorous fabric swatch treated with test material
Text: Blocker materials suitable for use in consumer products of the present invention are chosen for their ability to decrease malodor, while not interfering with perception of a fragrance. Material selection is done by assigning two indices to a test sample material from two reference scales in order to rank odor strengths. The two reference scales are the Fragrance Fidelity Index (FFI) scale and the Blocker Index (BI) scale. The FFI ranks the ability of the test sample material to impart a perceivable odor which could cause interference when combined with another fragrance and the BI ranks the ability of the test sample material to reduce malodor perception. The two methods for assigning the indices to a test sample on the FFI and the BI reference scales are given below.
The first step in the method for assigning a BI to a test sample material on the BI reference scale is to create the BI reference swatches. […] Fabric swatches for this test are white knit polycotton (4 inch×4 inch) swatches from EMC ordered as PC 50/50. The supplier is instructed to strip the swatches first, stripping involves washing twice with a fragrance-free detergent and rinsing three times.
The BI scale contains one clean swatch with no malodor applied. […] These solutions are pipetted to the middle of the swatches. […] After drying for 30 minutes in a vented hood, the swatches are wrapped in aluminum foil to prevent odor contamination to the treated swatch. A clean untreated swatch is also included as the lowest anchor point of reference for malodor strength on the BI scale. The BI reference scale swatches should be used within 0.5 to 12 hours and discarded after 12 hours. The swatches are used as scale anchor points when graders evaluate a test sample(s) and are assigned a Blocker Index (BI) as show in Table 12.
The perfumer/expert grader is asked to rank order swatches according to a scale between 0 and 3.
The reference swatches represent the 0, 1, 2, and 3 BIs on the BI reference scale, Table 12. The expert grader should familiarizes him/herself with the strength of the odor on the BI reference swatches by sniffing each one starting at 0 (the lowest odor strength) and ending at 3 (the highest odor strength). This should be done prior to evaluating the swatch treated with the test material.
To evaluate the BI, the test material is applied to a malodorous swatch to determine how well the test material blocks the malodor. […] After drying the malodorous swatch a known concentration of test material solution, between 1 ppm and 100 ppm is pipetted onto the malodorous swatch. […] It is sometimes necessary to evaluate several levels of the test material between about 1 and about 100 ppm to determine the BI.
At least two perfumers/expert graders are used to assign the BI to the test sample. […] The test sample swatch is assigned a BI at or between numbers on the BI in table.

[1] = Conc 10 ppm test material on isovaleric acid swatch
[2] = Conc 50 ppm test material on isovaleric acid swatch

| Structure (SMILES) | BI [1] | BI [2] | BI (Conc 10 ppm test material on isovaleric acid swatch, listed as 1H-Indene-5-propanal, 2,3-dihydro-3 ,3-dimethyl-) | BI (Conc 50 ppm test material on isovaleric acid swatch, listed as 1H-Indene-5-propanal, 2,3-dihydro-3 ,3-dimethyl-) |
| --- | --- | --- | --- | --- |
| CC1CCC2(C(C)C)CC(C)OC2C1 (stereo not drawn) [4,8-dimethyl-1-(methylethyl)-7-oxybiciclo[4.3.0]nonane] | 2.0 | 2.2 | – | – |
| CC1(C)CCc2ccc(CCC=O)cc21 [Material 261, 3-(3,3-dimethyl-2,3-dihydro-1H-inden-5-yl)propanal] | – | – | 1.5 | 2.7 |
| CCC(=O)OC1CC2C3C=CCC3C1C2(C)C (stereo not drawn) [8,8-dimethyl-3a,4,5,6,7,7a-hexahydro-1H-4,7-methanoinden-6-yl propionate] | 1.5 | 2.2 | – | – |
